Reference: patent publication US11739122B2, “Glycopeptide antibiotic compounds, methods for producing the same, and uses thereof” (Academia Sinica, priority 2019, dated 2023)
Converted amounts (≈) assume the structure as drawn.

Columns and labels:
A. baumannii ATCC 19606 [1] = test: MIC, broth microdilution; type: cell-based, Acinetobacter baumannii
How it was run: (§1)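 Step one, pick colonies from 18-24 h agar plates into broth until 0.5 McFarland turbidity; step two, dilute to approximately 1×10^8 CFU mL^−1; step three, incubate at 37° C for 18-24 h and score visible growth.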

S. aureus ATCC 29213 = test: MIC, broth microdilution; type: cell-based, Staphylococcus aureus; details: SA ATCC 29213
How it was run: as §1

MRSA ATCC 700698 hVISA = test: MIC, broth microdilution; type: cell-based, Staphylococcus aureus; details: MRSA ATCC 700698 hVISA
How it was run: as §1

MRSA ATCC 700789 VRSA = test: MIC, broth microdilution; type: cell-based, Staphylococcus aureus; details: MRSA ATCC 700789 VRSA
How it was run: as §1

MRSA ATCC BAA-39 = test: MIC, broth microdilution; type: cell-based, Staphylococcus aureus; details: MRSA ATCC BAA-39
How it was run: as §1

MRSA ATCC 43300 = test: MIC, broth microdilution; type: cell-based, Staphylococcus aureus; details: MRSA ATCC 43300
How it was run: as §1

MRSA ATCC 700787 VRSA = test: MIC, broth microdilution; type: cell-based, Staphylococcus aureus
How it was run: as §1

MRSA ATCC BAA-38 = test: MIC, broth microdilution; type: cell-based, Staphylococcus aureus; details: MRSA ATCC BAA-38
How it was run: as §1

MRSA ATCC BAA-44 = test: MIC, broth microdilution; type: cell-based, Staphylococcus aureus; details: MRSA ATCC BAA-44
How it was run: as §1

AB ATCC 19606 = test: Minimal bactericidal concentration (MBC); type: cell-based, Acinetobacter baumannii
Procedure: Minimal Bactericidal Concentration (MBC) Determination
The MBC test is an extension of the MIC examination. MBC was determined by performing subcultures on antibiotic-free agar from both the well where there was no visible growth at the MIC of a tested antibiotic and from the positive control well (with inoculum but without compounds). The plates were incubated at 37° C. for 18-24 hours. The MBC was taken as the lowest concentration of the test compound that results in more than 99.9% reduction of viable bacteria. If MBC was one or two dilutions above a given MIC value (MBC/MIC ratio was less than or equal to four), the antibiotic was considered bactericidal against the test organism.

E. faecalis ATCC 29302 = test: MIC, broth microdilution; type: cell-based; details: EF ATCC 29302
How it was run: as §1

HEK293T cells = test: Alamar Blue cell viability assay; type: cell-based, human; details: up to 100 μgmL^−1; 2 and 24 h
Procedure: The Alamar Blue (AB) assay, which includes a redox indicator that changes color or emits fluorescence in response to a metabolic activity, was used to assess in vitro mammalian cell cytotoxicity (human embryonic kidney cells (HEK293T)) upon an antibiotic treatment. 2×10^5 cellsmL^−1 were allowed to adhere on 96-well plates overnight at 37° C. in a humidified incubator (5% CO2 atmosphere). Tested compounds were dissolved in 50% DMSO to make 1 mgmL^−1 of a stock solution. Cells were separately aliquoted with 5 μL of a test compound (final concentration: 100 μgmL^−1) and incubated. PBS and 50% DMSO, which was used to dissolve compounds, served as a control. Cell viability was triplicated and assessed at 2 and 24 hour time points for each test compound, on which the measurements followed the manufacturer protocol.

[2] = test system: VRE ATCC 700221 (vanA type); test: Thin-section TEM, cell wall morphology; type: cell-based, enterococci; details: VRE ATCC700221, vanA type
Procedure: Thin-Section Transmission Electron Microscopy (TEM)
An overnight cultured MRSA ATCC 700787, VRE ATCC 700221 or A. baumannii ATCC 19606 was individually sub-cultured into a fresh medium. Bacteria at the exponential phase were treated with a given test compound at a concentration of 4×MIC for 1-4 hour at 37° C. and followed by wash and resuspension in PBS. Bacteria cells for the TEM analysis were prepared as follows: Cells were fixed with 2.5% glutaraldehyde for 30 minutes. After the fixation, cells were washed twice with PBS and fixed with 1% osmium tetraoxide for another 30 minutes. All the buffer was removed with distilled water. The cells were then stained with 1% uranyl acetate and dehydrated with a graded ethanol solution. Cells were embedded in resin. Finally, each sample was cut into thin slices of approximately 90 nm with a glass knife and stained with uranyl acetate. The images of bacterial morphological were recorded.
The cell wall was almost intact but interspersed with holes, where cell fluids outflew leading cells to death. In general, VRE was immune to compound 1 or 2 (>256 μgmL^−1), median sensitive to compound 14 (32 μgmL^−1), but highly sensitive to compound 28 (4 μgmL^−1). […]

A. baumannii ATCC 19606 [3] = test: Inner membrane permeabilization, propidium iodide (PI); type: cell-based, Acinetobacter baumannii; details: AB
Procedure: Membrane Permeabilization Assay
The inner membrane and outer membrane permeabilization was determined by propidium iodide (PI) and 1-N-Phenylnaphthylamine (NPN), respectively. MRSA (ATCC 700787) and A. baumannii (ATCC 19606) at mid-log phase were harvested, washed and resuspended in a solution containing 5 mM glucose and 5 mM HEPES at pH 7.2. For the inner membrane permeabilization, 150 μL cell suspension and 50 μL PI (10 μM) were added together and preincubated for 30 minutes or 60 minutes for MRSA or A. baumannii, respectively. For outer membrane permeabilization activity, 150 μL cell suspension and 50 μL NPN (10 μM) were added together and preincubated for 60 minutes. The change of fluorescence intensity was recorded for 8 minutes at 2 minute intervals with excitation and emission wavelength set at 535 nm and 617 nm, respectively for PI and with excitation and emission wavelength set at 350 nm of 420 nm, respectively, for NPN. When 5 μL of a given test compound was added in the solution, the fluorescence intensity was recorded for another 12 minutes.

MIC (A. baumannii ATCC 19606 [1]; A. baumannii ATCC 19606, Table 3, first figure of cell): 50 µM
MIC (A. baumannii ATCC 19606 [1]; A. baumannii ATCC 19606, Table 3, second figure of cell): 74.22 µg/mL
MIC (A. baumannii ATCC 19606 [1]; AB ATCC 19606, Table 4): 74.22 µg/mL
MIC (S. aureus ATCC 29213): 0.016 µg/mL (≈ 0.0108 µM)
MIC (MRSA ATCC 700698 hVISA): 0.016 µg/mL (≈ 0.0108 µM)
MIC (MRSA ATCC 700789 VRSA): 0.5 µg/mL (≈ 0.336 µM)
MIC (MRSA ATCC BAA-39): 0.016 µg/mL (≈ 0.0108 µM)
MIC (MRSA ATCC 43300): 0.063 µg/mL (≈ 0.0424 µM)
MIC (MRSA ATCC 700787 VRSA; MRSA ATCC 700787, Table 4): 0.016 µg/mL (≈ 0.0108 µM)
MIC (MRSA ATCC 700787 VRSA; MRSA ATCC 700787 VRSA): 0.016 µg/mL (≈ 0.0108 µM)
MIC (MRSA ATCC BAA-38): 0.016 µg/mL (≈ 0.0108 µM)
MIC (MRSA ATCC BAA-44): 0.016 µg/mL (≈ 0.0108 µM)
SMILES: CCCCCCCC(=O)N[C@H]1[C@H](O[C@@H]2c3ccc(c(Cl)c3)Oc3cc4cc(c3O)Oc3ccc(cc3Cl)C[C@H]3NC(=O)[C@H](N)c5ccc(O)c(c5)Oc5cc(O)cc(c5)[C@H](NC3=O)C(=O)N[C@H]4C(=O)N[C@H]3C(=O)N[C@@H]2C(=O)N[C@H](C(=O)O)c2cc(O)cc(O)c2-c2cc3ccc2O)O[C@H](CO)[C@@H](O)[C@@H]1O [Compound 14, r6,N-octyl-Glc Tei]
MBC (AB ATCC 19606): 74.22 µg/mL (≈ 49.9 µM)
MBC/MIC (AB ATCC 19606): 1
MIC (E. faecalis ATCC 29302): 0.25 µg/mL (≈ 0.168 µM)
cytotoxicity to HEK293T cells (HEK293T cells): did not exhibit any observable toxicity
sensitivity of VRE to compound (concentration) [2]: 32 µg/mL
inner (cytoplasmic) membrane permeabilization, PI (A. baumannii ATCC 19606 [3]): no activity
